Reference: patent US20220002280A1, “COMPOUNDS AND METHODS OF USE” (Ferro Therapeutics, Inc., priority 2019, published 2022)

Key:
Type in all cases: cell-based, human
A431 = experiment: Cell proliferation (Alamar Blue) assay, A431; settings: Homo sapiens, A-431, A431 cells, 24 h treatment
Procedure: (§1) A cell viability assay was performed to assess the potency of the compounds in human cancer cell lines 786-0 (renal cell carcinoma), SJSA-1 (osteosarcoma), and/or A431 (epidermoid carcinoma). Additional cell lines, such as pancreatic cancer cell lines (e.g., Panc 02.13, BxPC-3, Panc 12, Panc 02.03, Panc 6.03, PSN-1, HPAC, and Capan-1), prostate cancer cell lines (e.g., PC-3, DU145, 22Rv1, NCI-H660, BPH1, LNCaP, BM-1604, and MDA PCa 2b), etc., can be tested in a similar method.
(§2) Cells (SJSA-1, 786-0 and/or A431) were seeded (5000 cells/100 μL/well) in 96-well tissue culture plate and incubated at 37° C./5% CO2 for 16-24 hours. The cells were then treated with compounds (25 μL of 5×). The compound concentrations were 10-0.0005 μM prepared in 3-fold serial dilutions with final DMSO concentration of 1%. The plates were then incubated for 24h at 37° C./5% CO2 in a moist environment. Then Alamar Blue™ reagent (final concentration 1×-12.5 μL) was added to each well and incubated for 1.5 hours at 37° C./5% CO2. The plates were read on fluorescence reader at 540 nm excitation and 590 nm emission wavelengths. The IC50 values were subsequently determined using a sigmoidal dose-response curve (variable slope) in GraphPad Prism® 5 software.

SJSA-1 = experiment: Cell proliferation (Alamar Blue) assay, SJSA-1; settings: Homo sapiens, SJSA-1 cells, 24 h treatment
Procedure: as §1, §2

786-O = experiment: Cell proliferation (Alamar Blue) assay, 786-O; settings: Homo sapiens, 786-0, 24 h, 786-O cells, 24 h treatment
Procedure: as §1, §2

SMILES	IC50 (A431) [µM]	IC50 (SJSA-1) [µM]	IC50 (786-O) [µM]
C[C@H]1Cc2ccccc2C(c2ccc(N3CCOCC3)cc2)N1C(=O)CCl (stereo partly drawn) [Compound 1, 2-chloro-1-((3S)-3-methyl-1-(4-morpholinophenyl)-3,4-dihydroisoquinolin-2(1H)-yl)ethan-1-one]	–	2.8	2
COC(=O)c1ccc([C@@H]2c3ccccc3C[C@H](C(=O)OC)N2C(=O)CCl)cc1 [Compound 2, methyl (1R,3R)-2-(2-chloroacetyl)-1-(4-(methoxycarbonyl)phenyl)-1,2,3,4-tetrahydroisoquinoline-3-carboxylate]	8.7	0.855	0.742
COC(=O)c1ccc([C@H]2c3ccccc3C[C@H](C(=O)OC)N2C(=O)CCl)cc1 [Compound 3, methyl (1S,3R)-2-(2-chloroacetyl)-1-(4-(methoxycarbonyl)phenyl)-1,2,3,4-tetrahydroisoquinoline-3-carboxylate]	> 10	0.736	0.512
COC(=O)c1ccc([C@@H]2c3ccc(OC)cc3C[C@H](C)N2C(=O)CCl)cc1 [Compound 6, methyl 4-((1R,3S)-2-(2-chloroacetyl)-6-methoxy-3-methyl-1,2,3,4-tetrahydroisoquinolin-1-yl)benzoate]	> 10	3.2	3
COC(=O)c1ccc([C@H]2c3ccc(OC)cc3C[C@H](C)N2C(=O)CCl)cc1 [Compound 7, methyl 4-((1S,3S)-2-(2-chloroacetyl)-6-methoxy-3-methyl-1,2,3,4-tetrahydroisoquinolin-1-yl)benzoate]	7.8	0.22	0.137
C#CC(=O)N1[C@H](c2ccc(F)cc2)c2ccc(OC)cc2C[C@@H]1C [Compound 10]	8.6	0.278	0.164
CCCC[C@H]1Cc2cc(OC)ccc2[C@H](c2ccc(NC34CC5CC(CC(C5)C3)C4)cc2)N1C(=O)CCl [Compound 27, 1-((1S,3S)-1-(4-(((3R,5R,7R)-adamantan-1-yl)amino)phenyl)-3-butyl-6-methoxy-3,4-dihydroisoquinolin-2(1H)-yl)-2-chloroethan-1-one]	8.4	0.006	0.004
COc1ccc2c(c1)C[C@H](C)N(C(=O)CCl)[C@H]2c1ccc(N2CCOCC2)cc1 [Compound 33]	–	–	0.259
COC(=O)c1ccc([C@H]2c3cc(OC)c(OC)cc3C[C@H](C)N2C(=O)CCl)cc1 [Compound 34]	–	–	0.592
COC(=O)c1ccc([C@H]2c3ccccc3C[C@H](C)N2C(=O)CCl)cc1 [Compound 35]	–	2.56	–
C#CC(=O)N1[C@@H](CCCC)Cc2cc(OC)ccc2[C@@H]1C1CCCCC1 [Compound 39, 1-((1S,3S)-3-butyl-1-cyclohexyl-6-methoxy-3,4-dihydroisoquinolin-2(1H)-yl)prop-2-yn-1-one]	> 10	0.17	0.158
C#CC(=O)N1[C@@H](CCCC)Cc2cc(OC)ccc2[C@@H]1C1CCN(C)CC1 [Compound 54, 1-((3S)-3-butyl-6-methoxy-1-(1-methylpiperidin-4-yl)-3,4-dihydroisoquinolin-2(1H)-yl)prop-2-yn-1-one]	5.8	0.659	0.743
C#CC(=O)N1[C@@H](CCCC)Cc2cc(OC)ccc2[C@@H]1C12CC(N)(C1)C2 [Compound 76, 1-((1S,3S)-1-(3-aminobicyclo[1.1.1]pentan-1-yl)-3-butyl-6-methoxy-3,4-dihydroisoquinolin-2(1H)-yl)prop-2-yn-1-one]	> 10	0.623	0.187

Other lines, results leading:

IC50 (A431) [µM]	IC50 (SJSA-1) [µM]	IC50 (786-O) [µM]	SMILES
5	0.05	0.053	C#CC(=O)N1C(c2ccnc(C)c2)c2ccc(OC)cc2C[C@@H]1CCCC (stereo in doubt) [Compound 48, 1-((1S,3S)-3-butyl-6-methoxy-1-(2-methylpyridin-4-yl)-3,4-dihydroisoquinolin-2(1H)-yl)prop-2-yn-1-one]
> 10	0.018	0.016	CCCC[C@H]1Cc2cc(OC)ccc2[C@H](c2ccc(F)cc2)N1C(=O)CCl [Compound 11, 1-((1S,3S)-3-butyl-1-(4-fluorophenyl)-6-methoxy-3,4-dihydroisoquinolin-2(1H)-yl)-2-chloroethan-1-one]
3.6	0.005	0.002	CCCC[C@H]1Cc2cc(OC)ccc2[C@H](c2ccc(C(=O)NC3CCC3)cc2)N1C(=O)CCl [Compound 13, 4-((1S,3S)-3-butyl-2-(2-chloroacetyl)-6-methoxy-1,2,3,4-tetrahydroisoquinolin-1-yl)-N-cyclobutylbenzamide]
7.6	0.07	0.024	C#CC(=O)N1[C@@H](CCCC)Cc2cc(OC)ccc2[C@@H]1c1ccc(C(=O)NCCOC)cc1 [Compound 14, 4-((1S,3S)-3-butyl-6-methoxy-2-propioloyl-1,2,3,4-tetrahydroisoquinolin-1-yl)-N-(2 methoxyethyl)benzamide]
3.5	0.018	0.01	C#CC(=O)N1[C@@H](CCCC)Cc2cc(OC)ccc2[C@@H]1c1ccc(C(=O)NC2CCC2)nc1 [Compound 15, 5-((1R,3S)-3-butyl-6-methoxy-2-propioloyl-1,2,3,4-tetrahydroisoquinolin-1-yl)-N-cyclobutylpicolinamide]
8.9	0.008	0.004	C#CC(=O)N1[C@@H](CCCC)Cc2cc(OC)ccc2[C@@H]1c1ccc(S(=O)(=O)NC2CCC2)cc1 [Compound 18, 4-((1S,3S)-3-butyl-6-methoxy-2-propioloyl-1,2,3,4-tetrahydroisoquinolin-1-yl)-N-cyclobutylbenzenesulfonamide]
10	0.01	0.005	C#CC(=O)N1[C@@H](CCCC)Cc2cc(OC)ccc2[C@@H]1c1ccc(C(=O)NC23CC4CC(CC(C4)C2)C3)cc1 [Compound 38, N-((3R,5R,7R)-adamantan-1-yl)-4-((1S,3S)-3-butyl-6-methoxy-2-propioloyl-1,2,3,4-tetrahydroisoquinolin-1-yl)benzamide]
6.6	0.04	0.023	C#CC(=O)N1[C@@H](CCCC)Cc2cc(OC)ccc2[C@@H]1c1ccccn1 [Compound 49, 1-((1R,3S)-3-butyl-6-methoxy-1-(pyridin-2-yl)-3,4-dihydroisoquinolin-2(1H)-yl)prop-2-yn-1-one]
> 10	0.101	0.065	C#CC(=O)N1[C@@H](CCCC)Cc2cc(OC)ccc2[C@@H]1c1ccn(C)n1 [Compound 50, 1-[(1R,3S)-3-butyl-6-methoxy-1-(1-methyl-1H-pyrazol-3-yl)-1,2,3,4-tetrahydroisoquinolin-2-yl]prop-2-yn-1-one]
2.3	0.032	0.027	C#CC(=O)N1[C@@H](CCCC)Cc2cc(OC)ccc2[C@@H]1c1ccc(-c2nc(C)no2)cc1 [Compound 55, 1-((1S,3S)-3-butyl-6-methoxy-1-(4-(3-methyl-1,2,4-oxadiazol-5-yl)phenyl)-3,4-dihydroisoquinolin-2(1H)-yl)prop-2-yn-1-one]
> 10	0.047	0.108	C#CC(=O)N1[C@@H](CCCC)Cc2cc(OC)ccc2[C@@H]1c1ccc(Nc2cccnc2)cc1 [Compound 94, 1-[(1S,3S)-3-butyl-6-methoxy-1-{4-[(pyridin-3-yl)amino]phenyl}-1,2,3,4-tetrahydroisoquinolin-2-yl]prop-2-yn-1-one]
